# Tested on: Japanese type 2 diabetic subjects
# Assay: Phase 2b dose-ranging placebo-controlled 24-week study in Japanese type 2 diabetic subjects
# Format: in vivo, human
# Conditions: for FPG LSM difference vs baseline / FPG LSM difference vs placebo: 24 weeks, FAS; for responder rate (subjects reaching HbA1c≤7%): end of 24-week treatment (placebo 8.2%)
# Method: A Dose-Ranging, Randomized, Double-Blind, Placebo-Controlled, Parallel-Group, Multi-Center Study of the Efficacy and Safety of 3 Doses of Imeglimin after 24 Weeks of Treatment in Japanese Type 2 Diabetic Subjects
# In this study, a total of 299 subjects with T2DM received either imeglimin at one of the 3 doses (500, 1000 and 1500 mg bid) or placebo. The primary objective of this study was to assess the dose-response of imeglimin at 3 doses (500, 1000 and 1500 mg bid) compared to placebo in male and female subjects with T2DM after 24 weeks of treatment, using glycosylated hemoglobin (HbA1c) as the primary endpoint. Inclusion Criteria: subjects have an eGFR of ≥50 mL/min/1.73 m^2 at screening and >=45 at pre randomization visit. A total of 299 subjects were randomized 1:1:1:1 to one of the 4 study arms, with 268 subjects completing the study.
# Percentage of responders was defined as the percentage of subjects who reached a value of HbA1c≤7% at the end of the 24-week double-blind treatment period. The analysis was performed using the FAS for subjects with an HbA1c value greater than 7.0% at baseline.
# In a post-hoc analysis, efficacy and safety/tolerability profile was investigated in patients depending on their renal function (CKD 1=eGFR≥90 mL/min/1.73 m^2, CKD2=60≤eGFR<90 mL/min/1.73 m^2, CKD3A=45≤eGFR<60 mL/min/1.73 m^2). 299 patients were randomized 74% of the patients had CKD2, 14% had CKD1, and 12% CKD3A, respectively. The primary endpoint was met with a statistically significant dose-dependent placebo subtracted decrease in HbA1c at the 3 doses with the 2 top doses of 1,000 and 1,500 mg bid reaching an HbA1c decrease of −0.94% and −1.00% respectively (Table 5). […] There were no major differences in the incidence of AE, SAE or AE leading to treatment discontinuation.
# [1] = CKD Stage 2 (eGFR = 60-90 mL/min/1.73 m^2), 500 mg BID
# [2] = CKD Stage 2 (eGFR = 60-90 mL/min/1.73 m^2), 500 mg BID, N 56
# [3] = CKD Stage 2 (eGFR = 60-90 mL/min/1.73 m^2), 1000 mg BID
# [4] = CKD Stage 2 (eGFR = 60-90 mL/min/1.73 m^2), 1000 mg BID, N 57
# [5] = CKD Stage 2 (eGFR = 60-90 mL/min/1.73 m^2), 1500 mg BID
# [6] = CKD Stage 2 (eGFR = 60-90 mL/min/1.73 m^2), 1500 mg BID, N 51
# [7] = CKD Stage 3a (eGFR < 60 mL/min/1.73 m^2), 500 mg BID
# [8] = CKD Stage 3a (eGFR < 60 mL/min/1.73 m^2), 500 mg BID, N 10
# [9] = CKD Stage 3a (eGFR < 60 mL/min/1.73 m^2), 1000 mg BID
# [10] = CKD Stage 3a (eGFR < 60 mL/min/1.73 m^2), 1000 mg BID, N 7
# [11] = CKD Stage 3a (eGFR < 60 mL/min/1.73 m^2), 1500 mg BID
# [12] = CKD Stage 3a (eGFR < 60 mL/min/1.73 m^2), 1500 mg BID, N 8
# [13] = Normal eGFR (eGFR > 90 mL/min/1.73 m^2), 500 mg BID
# [14] = Normal eGFR (eGFR > 90 mL/min/1.73 m^2), 500 mg BID, N 9
# [15] = Normal eGFR (eGFR > 90 mL/min/1.73 m^2), 1000 mg BID
# [16] = Normal eGFR (eGFR > 90 mL/min/1.73 m^2), 1000 mg BID, N 9
# [17] = Normal eGFR (eGFR > 90 mL/min/1.73 m^2), 1500 mg BID
# [18] = Normal eGFR (eGFR > 90 mL/min/1.73 m^2), 1500 mg BID, N 14
compound,measurement,setting,value
"C[C@H]1N=C(N(C)C)N=C(N)N1 [imeglimin, (6R)—N^2, N^2,6-trimethyl-3,6-dihydro-1,3,5-triazine-2,4-diamine]",TEAE leading to discontinuation,500 mg (placebo 13.3%),2.7%
same,FPG LSM difference vs baseline,500 mg bid,8.0 mg/dL
same,FPG LSM difference vs placebo,500 mg bid,-8.6 mg/dL
same,placebo-adjusted change in HbA1c,"500 mg bid, baseline HbA1c <8%",−0.47%
same,placebo-adjusted change in HbA1c,"500 mg bid, baseline HbA1c ≥8%",−0.58%
same,TEAE leading to discontinuation,1000 mg (placebo 13.3%),6.8%
same,FPG LSM difference vs baseline,1000 mg bid,-8.0 mg/dL
same,FPG LSM difference vs placebo,1000 mg bid,-24.6 mg/dL
same,placebo-adjusted change in HbA1c,"1000 mg bid, baseline HbA1c <8%",−0.93%
same,placebo-adjusted change in HbA1c,"1000 mg bid, baseline HbA1c ≥8%",−0.90%
same,responder rate (subjects reaching HbA1c≤7%),1000 mg bid,33.3%
same,TEAE leading to discontinuation,1500 mg (placebo 13.3%),6.7%
same,subjects requiring a rescue therapy due to poor glycemic control,1500 mg bid (placebo 10.7%),no subjects requiring rescue therapy
same,FPG LSM difference vs baseline,1500 mg bid,-8.0 mg/dL
same,FPG LSM difference vs placebo,1500 mg bid,-24.6 mg/dL
same,placebo-adjusted change in HbA1c,"1500 mg bid, baseline HbA1c <8%",−0.82%
same,placebo-adjusted change in HbA1c,"1500 mg bid, baseline HbA1c ≥8%",−1.2%
same,responder rate (subjects reaching HbA1c≤7%),1500 mg bid,32.9%
same,Decrease in FPG (placebo-adjusted),2 top doses of 1000 and 1500 mg bid,1.37 mmol/L
same,SAE or AE leading to discontinuation,"CKD3a subgroup, post-hoc analysis",No SAE or AE leading to discontinuation were observed
same,"FPG LSM Difference vs. Placebo, Week 24",[1],-14.2 mg/dL
same,"HbA1c LSM Difference vs. Placebo (SEM), Week 24",[1],−0.60%
same,"Change in FPG from baseline, Week 24 LS Mean",[2],5.8 mg/dL
same,"Change in HbA1c from baseline, Week 24 LS Mean (SEM)",[2],−0.08 (0.109) %
same,"HbA1c LSM Difference vs. Placebo (SEM), Week 24","CKD Stage 2 (eGFR = 60-90 mL/min/1.73 m^2), 500 mg BID, listed as Imeglimin",−0.60 (0.154) %
same,"FPG LSM Difference vs. Placebo, Week 24",[3],-26.5 mg/dL
same,"HbA1c LSM Difference vs. Placebo (SEM), Week 24",[3],−1.03%
same,"Change in FPG from baseline, Week 24 LS Mean",[4],-6.5 mg/dL
same,"Change in HbA1c from baseline, Week 24 LS Mean (SEM)",[4],−0.51 (0.110) %
same,"HbA1c LSM Difference vs. Placebo (SEM), Week 24","CKD Stage 2 (eGFR = 60-90 mL/min/1.73 m^2), 1000 mg BID, listed as Imeglimin",−1.03 (0.155) %
same,"FPG LSM Difference vs. Placebo, Week 24",[5],-33.0 mg/dL
same,"HbA1c LSM Difference vs. Placebo (SEM), Week 24",[5],−1.11%
same,"Change in FPG from baseline, Week 24 LS Mean",[6],-12.9 mg/dL
same,"Change in HbA1c from baseline, Week 24 LS Mean (SEM)",[6],−0.58 (0.117) %
same,"HbA1c LSM Difference vs. Placebo (SEM), Week 24","CKD Stage 2 (eGFR = 60-90 mL/min/1.73 m^2), 1500 mg BID, listed as Imeglimin",−1.11 (0.160) %
same,"FPG LSM Difference vs. Placebo, Week 24",[7],-6.7 mg/dL
same,"HbA1c LSM Difference vs. Placebo (SEM), Week 24",[7],−0.54%
same,"Change in FPG from baseline, Week 24 LS Mean",[8],1.7 mg/dL
same,"Change in HbA1c from baseline, Week 24 LS Mean (SEM)",[8],−0.32 (0.240) %
same,"HbA1c LSM Difference vs. Placebo (SEM), Week 24","CKD Stage 3a (eGFR < 60 mL/min/1.73 m^2), 500 mg BID, listed as Imeglimin",−0.54 (0.336) %
same,"FPG LSM Difference vs. Placebo, Week 24",[9],-11.2 mg/dL
same,"HbA1c LSM Difference vs. Placebo (SEM), Week 24",[9],−0.44%
same,"Change in FPG from baseline, Week 24 LS Mean",[10],-2.8 mg/dL
same,"Change in HbA1c from baseline, Week 24 LS Mean (SEM)",[10],−0.22 (0.282) %
same,"HbA1c LSM Difference vs. Placebo (SEM), Week 24","CKD Stage 3a (eGFR < 60 mL/min/1.73 m^2), 1000 mg BID, listed as Imeglimin",−0.44 (0.368) %
same,"FPG LSM Difference vs. Placebo, Week 24",[11],-20.6 mg/dL
same,"HbA1c LSM Difference vs. Placebo (SEM), Week 24",[11],−1.07%
same,"Change in FPG from baseline, Week 24 LS Mean",[12],-12.2 mg/dL
same,"Change in HbA1c from baseline, Week 24 LS Mean (SEM)",[12],−0.86 (0.265) %
same,"HbA1c LSM Difference vs. Placebo (SEM), Week 24","CKD Stage 3a (eGFR < 60 mL/min/1.73 m^2), 1500 mg BID, listed as Imeglimin",−1.07 (0.353) %
same,incidence of subjects presenting with Treatment Emergent (TE) AE,Imeglimin 1000 mg,62.2%
same,incidence of subjects presenting with any adverse event (AE),Imeglimin 1000 mg,73%
same,incidence of subjects presenting with Treatment Emergent (TE) AE,Imeglimin 1500 mg,73.3%
same,incidence of subjects presenting with any adverse event (AE),Imeglimin 1500 mg,77.3%
same,"FPG LSM Difference vs. Placebo, Week 24",[13],14.5 mg/dL
same,"HbA1c LSM Difference vs. Placebo (SEM), Week 24",[13],−0.01 (0.290) %
same,"Change in FPG from baseline, Week 24 LS Mean",[14],15.9 mg/dL
same,"Change in HbA1c from baseline, Week 24 LS Mean (SEM)",[14],0.04 (0.221) %
same,"FPG LSM Difference vs. Placebo, Week 24",[15],-28.1 mg/dL
same,"HbA1c LSM Difference vs. Placebo (SEM), Week 24",[15],−0.85 (0.283) %
same,"Change in FPG from baseline, Week 24 LS Mean",[16],-26.6 mg/dL
same,"Change in HbA1c from baseline, Week 24 LS Mean (SEM)",[16],−0.8 (0.213) %
same,"FPG LSM Difference vs. Placebo, Week 24",[17],5.1 mg/dL
same,"HbA1c LSM Difference vs. Placebo (SEM), Week 24",[17],−0.47 (0.260) %
same,"Change in FPG from baseline, Week 24 LS Mean",[18],6.6 mg/dL
same,"Change in HbA1c from baseline, Week 24 LS Mean (SEM)",[18],−0.42 (0.175) %
same,incidence of TEAE considered as related to the study drug,imeglimin 500 mg (placebo 8%),5.3%
same,incidence of TEAE from the gastrointestinal disorder SOC,imeglimin 500 mg (placebo 14.7%),14.7%
same,serious TEAEs,imeglimin 500 mg bid,none
same,incidence of TEAE considered as related to the study drug,imeglimin 1000 mg (placebo 8%),5.4%
same,incidence of TEAE from the gastrointestinal disorder SOC,imeglimin 1000 mg (placebo 14.7%),18.9%
same,serious TEAEs,imeglimin 1000 mg bid,5.4%
same,incidence of TEAE considered as related to the study drug,imeglimin 1500 mg (placebo 8%),24%
same,incidence of TEAE from the gastrointestinal disorder SOC,imeglimin 1500 mg (placebo 14.7%),32%
same,serious TEAEs,imeglimin 1500 mg bid,1.3%
